Where two headings read alike, the source gives them in different places. Starred links: 1 amine or outer side, 2 acyl side, 3 side chain; linkers in the order of their positions; H or OH if unused. Positions of bridges follow the written chain, without caps; N, C: chain ends. Non-standard residues stand in square brackets, D forms with d. Residues, ends and D or L forms follow the SMILES beside them. ξ: configuration not given here. *: point of attachment. X1 = O=C(C(N[*:1])C(O)C(O)c1ccc(O)c(OS(=O)(=O)O)c1)[*:2]; ξOrn(4,5-diOH) = O=C(C(CC(O)C(O)N[*:3])N[*:1])[*:2]; X4 = CCCCCCCCCCCCCC(CC(=O)[*:1])O[*:2]; ξPro(3ξ-OH,4ξ-Me) = CC1CNC(C(=O)O)C1O; X2 = NC(=O)CC(O)C(N[*:1])C(=O)[*:2]; Palmitoyl = CCCCCCCCCCCCCCCC(=O)*; X3 = O=C(C1C(O)CCN1[*:1])[*:2]; Hyp = O=C(O)[CH]1C[CH](O)CN1; Orn = NCCC[CH](N)C(=O)O
Columns and labels:
[1] = system: acylase produced by Streptomyces sp. No. 6907; assay: Deacylation of cyclic lipopeptide substrates by the acylase of Streptomyces sp. No. 6907 (HPLC, Lineweaver-Burk, substrate specificity); type: biochemical; details: for Vmax / Km: substrate of the acylase, fermentation broth of Streptomyces sp. No. 6907; for Km: read-out: Km value determined by the Lineweaver-Burk method
Experimental: To 700 μl of the fermentation broth of Streptomyces sp. No. 6907 obtained in Example 1-3 was added 100 μl of an aqueous solution of Substance FR901379 (100 mg/ml) (10 mg as Substance FR901379; 8.35 μmol) together with 100 μl of methanol and 100 μl of buffer (0.5 M potassium dihydrogen phosphate-disodium hydrogen phosphate buffer; pH 6.0), and the reaction was carried out at 30° C. for 30 minutes. The reaction was then stopped with 4% acetic acid and following addition of 2 ml of methanol, the mixture was filtered through a membrane filter (0.45 μm) to remove the macromolecular protein and other fraction and subjected to HPLC and the acylase activity of the skeletal substance FR179642 produced was monitored and assayed at 210 nm.
Using a variable wavelength UV detector (Shimadzu SPD-10A), a pump (Shimadzu LC-10AD) and an integrator (Shimadzu C-R6A) as the instrumentation, LiChrospher 100RP-18(e) (250 mm×4 mm i.d., particle diameter 5 μm(E.Merck)) as the stationary phase, and 3% acetonitrile/0.5% ammonium dihydrogen phosphate as the mobile phase, Substance FR179642 was eluted at a flow rate of 1 ml/min. The retention time of Substance FR179642 was about 6.3 minutes. The yield of Substance FR179642 as calculated from HPLC data was 560 μg (0.60 μmol).
(§1) To 100 μl of the fermentation broth of Streptomyces sp. No. 6907 obtained in Example 1-3 was added 100 μl of a dimethyl sulfoxide solution of Aculeacin A (100 mg/ml) (10 mg as Aculeacin A; 9.65 μmol) together with 500 μl of 1.2 M KCl-containing 500 mM potassium dihydrogen phosphate-disodium hydrogen phosphate buffer (pH 7.0) and 300 μl of water, and the reaction was carried out at 40° C. for 15 minutes. The reaction was then stopped with 1 ml of 4% acetic acid and following addition of 2 ml of methanol, the mixture was filtered through a membrane filter (0.45 μm) to remove the macromolecular protein and other fraction and subjected to HPLC and the acylase activity of the nuclear substance Aculeacin A produced was monitored at 210 nm and determined. Using a variable wavelength UV detector (Shimadzu SPD-10A), a pump (Shimadzu LC-10AD) and an integrator (Shimadzu C-R6A) as the instrumentation, LiChrospher 100RP-18(e) (250 mm×4 mm i.d., particle diameter 5 μm (E.Merck)) as the stationary phase, and 4% acetonitrile/1% ammonium dihydrogen phosphate as the mobile phase, nuclear substance Aculeacin A was eluted at a flow rate of 1 ml/min. The retention time of nuclear substance Aculeacin A was about 8.7 minutes. The yield of nuclear substance Aculeacin A as calculated from HPLC data was 370 μg (0.47 μmol).
as §1, with “Echinocandin B” for “Aculeacin A”, “Echinocandin B; 9.43” for “Aculeacin A; 9.65”, “monitored and assayed” for “monitored”, “nm.” for “nm and determined.”, “90” for “370”, “(0.11” for “(0.47”
To 2.0 ml of the fermentation broth of Streptomyces sp. […]

[2] = target: T1, Actinoplanes utahensis-derived acylase (Actinoplanes utahensis, UniProt P29958); assay: Deacylation of Substance FR901469 by Actinoplanes utahensis acylase (HPLC of Substance FR181131); type: biochemical, Actinoplanes utahensis IF013244; details: produces Substance FR181131
T1 construct: To 20 ml of a fermentation broth of Actinoplanes utahensis IF013244; endogenous in cells; host or cells: Actinoplanes utahensis IF013244 (so in the source), whole fermentation broth
T1 sequence (P29958 230-786 limits assumed): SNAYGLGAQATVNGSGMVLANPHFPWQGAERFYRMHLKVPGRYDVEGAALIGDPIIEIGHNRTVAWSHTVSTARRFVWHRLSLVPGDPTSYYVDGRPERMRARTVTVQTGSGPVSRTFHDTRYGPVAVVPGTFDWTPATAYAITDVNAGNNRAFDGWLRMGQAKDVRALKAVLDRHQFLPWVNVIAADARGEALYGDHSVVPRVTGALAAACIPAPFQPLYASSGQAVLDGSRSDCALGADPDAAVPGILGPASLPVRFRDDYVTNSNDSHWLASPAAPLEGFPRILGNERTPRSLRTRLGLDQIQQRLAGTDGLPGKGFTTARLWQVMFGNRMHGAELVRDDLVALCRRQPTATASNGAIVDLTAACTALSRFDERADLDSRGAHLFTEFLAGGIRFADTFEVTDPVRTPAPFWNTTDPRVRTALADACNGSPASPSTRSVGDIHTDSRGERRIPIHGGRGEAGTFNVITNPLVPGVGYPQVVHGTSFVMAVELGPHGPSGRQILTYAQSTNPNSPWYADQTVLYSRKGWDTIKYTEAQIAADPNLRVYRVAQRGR
T1 sequence (P29958 35-214 limits assumed): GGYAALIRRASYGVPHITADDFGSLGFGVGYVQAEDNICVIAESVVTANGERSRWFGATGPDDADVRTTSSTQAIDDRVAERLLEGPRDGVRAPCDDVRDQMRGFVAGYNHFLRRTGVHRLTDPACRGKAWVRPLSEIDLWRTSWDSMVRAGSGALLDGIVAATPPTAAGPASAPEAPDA
Experimental: To 20 ml of a fermentation broth of Actinoplanes utahensis IF013244 as prepared by the procedure described in J. Antibiotics, Vol. 41, p. 1085-1092 ('88) was added 1 ml of an aqueous solution of Substance FR901469 (200 mg/ml) (0.2 g as Substance FR901469; 130 μmol) together with 2.9 g of disodium hydrogen phosphate and 60 ml of water, and the reaction was carried out at 60° C. for 24 hours. After completion of the reaction, the reaction mixture was filtered through a membrane filter (0.45 μm) to remove the high molecular protein and other fraction and purified by HPLC under monitoring for Substance FR181131 at 210 nm and the acylase activity was determined. Using a variable wavelength UV detector (Shimadzu SPD-10A), a pump (Shimadzu LC-10AD) and an integrator (Shimadzu C-R6A) as the instrumentation, YMC AM303 (250 mm×4 mm i.d., particle diameter 5 μm) as the stationary phase, and 12.5% acetonitrile/0.5% ammonium dihydrogen phosphate as the mobile phase, Substance FR181131 was eluted at a flow rate of 1 ml/min. The retention time of Substance FR181131 was about 7.3 minutes. The yield of Substance FR181131 as calculated from HPLC data was 80 mg (68 μmol).

Question: What does the source list for `CCCCCCCCCCCCCCCC(=O)NC1CC(O)C(O)NC(=O)C2C(O)C(C)CN2C(=O)C(C(O)CC(N)=O)NC(=O)C(C(O)C(O)c2ccc(O)c(OS(=O)(=O)O)c2)NC(=O)C2CC(O)CN2C(=O)C(C(C)O)NC1=O` (stereo not drawn) [Substance FR901379] (Palmitoyl-[ξOrn(4,5-diOH)]T[Hyp][X1][X2][ξPro(3ξ-OH,4ξ-Me)]; lactam 1-C; configuration not given here)?
Answer: Substrate specificity (catalytic action of the acylase on the substrate) [1]: acts as a catalyst; Vmax [1]: 14.3 U/mg-protein; Km [1]: 257 µM

Question: For Aculeacin A, which “Substrate specificity (catalytic action of the acylase on the substrate)” value (shortened to “Substrate specificity”) [1] is on record?
Answer: acts as a catalyst

Question: And the Vmax [1]?
Answer: 16.8 U/mg-protein

Question: What about the Km [1] of the same compound?
Answer: 279 µM

Question: With `CCCCCCCCCCCCCC1CC(=O)NC(C(C)O)C(=O)NC(C)C(=O)NC(Cc2ccc(O)cc2)C(=O)NC(C(C)C)C(=O)N2CC(O)CC2C(=O)NC(C(C)O)C(=O)NC(C(C)O)C(=O)N2CCC(O)C2C(=O)NC(C(O)CC(N)=O)C(=O)NCC(=O)NC(C(C)O)C(=O)NC(CCCN)C(=O)O1` (stereo not drawn) [Substance FR901469] (TAYV[Hyp]TT[X3][X2]GT[Orn]; linker N-C via X4; configuration not given here) as the compound, how does the “Substrate specificity” value [1] read?
Answer: exerts no catalytic action

Question: What about the “Substrate specificity” value ([1]; listed as FR901469) of the same compound?
Answer: does not act upon

Question: What about the “Substrate specificity” value [2] of the same compound?
Answer: exerts a catalytic action

Question: With Echinocandin B as the compound, how does the “Substrate specificity” value [1] read?
Answer: acts as a catalyst

Question: What about the Vmax [1] of the same compound?
Answer: 7.85 U/mg-protein

Question: And the Km [1]?
Answer: 146 µM
